# Measured values reported in patent publication US7678791B2, “Nitroheteroaryl-containing rifamycin derivatives” (Cumbre IP Ventures, L.P., priority 2006, dated 2010).
# Tested on: Mycobacterium tuberculosis H37Rv (rif-resistant)
# Test: microbe, parasite or virus in culture
# Format: cell-based
structure (smiles),measurement,setting,value
"CO[C@H]1/C=C/O[C@@]2(C)Oc3c(C)c(O)c4c(c3C2=O)C2=NC3(CCN(CCn5c([N+](=O)[O-])cnc5C)CC3)NC2=C(NC(=O)/C(C)=C\C=C\[C@H](C)[C@H](O)[C@@H](C)[C@@H](O)[C@@H](C)[C@H](OC(C)=O)[C@@H]1C)C4=O [Example 1, 4-Deoxy-3,4-[2-spiro-[1-[2-(2-methyl-5-nitro-imidazol-1-yl)ethyl]-piperidin-4-yl]]-(1H)-imidazo-(2,5-dihydro)rifamycin S]","antimicrobial activity in words, rifampin-resistant M. tuberculosis",,retains activity
same,MIC,"Mycobacterium tuberculosis, H37RV",5 µg/mL
